For this experiment, the target named is T1, Farnesyltransferase (Saccharomyces cerevisiae S288c, UniProt P22007+P29703).
T1 sequence (P29703 whole entry): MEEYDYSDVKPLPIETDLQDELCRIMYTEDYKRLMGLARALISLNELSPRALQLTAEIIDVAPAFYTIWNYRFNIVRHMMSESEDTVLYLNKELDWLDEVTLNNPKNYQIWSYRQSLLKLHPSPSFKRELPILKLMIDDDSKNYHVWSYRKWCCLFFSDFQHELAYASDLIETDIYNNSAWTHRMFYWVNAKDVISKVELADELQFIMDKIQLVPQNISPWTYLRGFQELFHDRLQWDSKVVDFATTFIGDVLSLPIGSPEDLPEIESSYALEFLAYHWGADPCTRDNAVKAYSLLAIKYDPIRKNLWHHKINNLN
T1 sequence (P22007 whole entry): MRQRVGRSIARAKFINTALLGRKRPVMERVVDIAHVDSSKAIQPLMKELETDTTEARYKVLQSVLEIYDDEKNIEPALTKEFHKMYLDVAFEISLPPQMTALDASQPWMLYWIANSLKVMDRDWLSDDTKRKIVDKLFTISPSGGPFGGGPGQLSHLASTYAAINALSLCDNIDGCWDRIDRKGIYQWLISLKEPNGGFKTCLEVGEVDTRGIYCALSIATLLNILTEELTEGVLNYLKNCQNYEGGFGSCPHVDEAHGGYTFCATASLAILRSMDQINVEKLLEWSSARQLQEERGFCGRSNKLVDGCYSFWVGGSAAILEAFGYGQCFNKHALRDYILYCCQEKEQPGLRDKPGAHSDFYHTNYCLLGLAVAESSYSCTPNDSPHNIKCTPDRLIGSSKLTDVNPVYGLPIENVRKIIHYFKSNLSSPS
Nature of the experiment: Inhibitory activity against yeast farnesyltransferase. It is filed as protein-complex assay.

Take `Cc1ccc(CC(=O)Nc2ccc(NC(=O)CCCCCc3ccccc3)cc2C(=O)c2ccccc2)cc1`: the IC50 is 1100 nM.

Compound `Cc1ccc(CC(=O)Nc2ccc(NC(=O)Cc3ccccc3)cc2C(=O)c2ccccc2)cc1` displayed an IC50 of 2000 nM.

In the case of `CCC(C)[C@@H](CN(CC(=O)N[C@@H](CCSC)C(=O)O)Cc1cccc2ccccc12)NC(=O)CC1CN(Cc2ccc(C#N)cc2)C=N1` (some centres undefined), the 50% inhibitory concentration (IC50) is 12 nM.

In turn, `Cc1ccc(CC(=O)Nc2ccc(NC(=O)c3ccccc3)cc2C(=O)c2ccccc2)cc1` showed an IC50 of 6000 nM.

`Cc1ccc(CC(=O)Nc2ccc(NC(=O)CCCCc3ccccc3)cc2C(=O)c2ccccc2)cc1` displayed a half-inhibitory concentration (IC50) of 390 nM.

For the compound `Cc1ccc(CC(=O)Nc2ccc(NC(=O)CCCc3ccccc3)cc2C(=O)c2ccccc2)cc1`, the IC50 was found to be 530 nM. The IC50 values of the last two compounds are within 1.5-fold of each other.

As for `CSCC[C@H](NC(=O)c1ccc(CN(Cc2ccccc2)c2cccnc2)cc1-c1ccccc1C)C(=O)O`, the IC50 came out at 0.1 nM.

Consider `CSCC[C@H](NC(=O)c1ccc(COc2cccnc2)cc1-c1ccccc1C)C(=O)O`, for which the midpoint of inhibition, the IC50, lay at 0.4 nM.

`Cc1ccc(CC(=O)Nc2ccc(NC(=O)/C=C/c3csc(-c4ccc([N+](=O)[O-])cc4)n3)cc2C(=O)c2ccccc2)cc1`: the IC50 was found to be 455 nM.

Compound `CCC(C)[C@@H](CN(CC(=O)N[C@@H](CCSC)C(=O)O)Cc1cccc2ccccc12)NC(=O)CSCc1ccc(C#N)cc1` (some centres undefined) showed an IC50 of 5.4 nM. Compared with the last compound, the IC50 is about 84-fold lower.

Compound `CSCC[C@H](NC(=O)c1ccc(COCc2ccc(-c3ccccc3)o2)cc1-c1ccccc1)C(=O)O` showed a 50% inhibitory concentration (IC50) of 6 nM.

As for `Cc1ccc(CC(=O)Nc2ccc(NC(=O)/C=C/c3ccc(-c4ccc(Br)cc4)o3)cc2C(=O)c2ccccc2)cc1`, half-maximal inhibition (IC50) required 925 nM.

On to `Cc1ccc(CC(=O)Nc2ccc(NC(=O)/C=C/c3ccc(-c4ccc(Cl)cc4)o3)cc2C(=O)c2ccccc2)cc1`, for which the IC50 amounted to 6300 nM.

`Cc1ccc(CC(=O)Nc2ccc(NC(=O)CCc3ccccc3)cc2C(=O)c2ccccc2)cc1` registered an IC50 of 2000 nM.

A word on the IC50: it is the concentration needed to halve the response being measured.
